# Assay results published in article PMC8460738, “Berberine is an insulin secretagogue targeting the KCNH6 potassium channel” (Nature Communications, 2021).
# Molecular target: T1, KCNH6 potassium channel (Homo sapiens, UniProt Q9H252)
# T1 construct: human KCNH6 (WT cDNA) transfected in HEK293T cells; FLAG-tagged for pull-down
# T1 sequence (Q9H252 1-958): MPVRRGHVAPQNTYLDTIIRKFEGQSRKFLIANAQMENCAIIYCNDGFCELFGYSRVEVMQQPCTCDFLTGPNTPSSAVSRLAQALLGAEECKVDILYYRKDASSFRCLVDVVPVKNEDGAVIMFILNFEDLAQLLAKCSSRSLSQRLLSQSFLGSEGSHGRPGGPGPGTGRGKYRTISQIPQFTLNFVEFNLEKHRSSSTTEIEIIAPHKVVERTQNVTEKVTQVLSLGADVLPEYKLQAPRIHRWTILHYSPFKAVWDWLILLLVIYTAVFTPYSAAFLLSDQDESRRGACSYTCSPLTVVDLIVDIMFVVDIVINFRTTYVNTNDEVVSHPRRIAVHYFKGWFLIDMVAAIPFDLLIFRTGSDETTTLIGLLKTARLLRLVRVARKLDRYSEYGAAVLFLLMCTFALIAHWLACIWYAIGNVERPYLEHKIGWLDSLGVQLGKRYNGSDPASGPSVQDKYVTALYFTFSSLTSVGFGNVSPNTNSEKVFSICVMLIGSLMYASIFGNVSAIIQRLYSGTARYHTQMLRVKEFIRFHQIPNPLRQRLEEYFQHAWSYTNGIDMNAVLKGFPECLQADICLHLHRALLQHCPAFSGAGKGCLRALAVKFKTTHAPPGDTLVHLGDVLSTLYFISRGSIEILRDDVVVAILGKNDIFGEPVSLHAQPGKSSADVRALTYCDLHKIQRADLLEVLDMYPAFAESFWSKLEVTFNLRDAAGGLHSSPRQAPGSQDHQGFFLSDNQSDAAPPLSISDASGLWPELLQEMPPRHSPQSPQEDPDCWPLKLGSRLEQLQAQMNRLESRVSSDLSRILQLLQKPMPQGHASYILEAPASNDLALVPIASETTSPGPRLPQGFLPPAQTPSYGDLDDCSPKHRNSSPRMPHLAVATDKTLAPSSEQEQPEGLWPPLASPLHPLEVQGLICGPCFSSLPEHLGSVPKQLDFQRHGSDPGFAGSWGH
# Experiment: whole-cell patch clamp of KCNH6-transfected HEK293T cells; affinity-bead pull-down from cell extract competed by free BBR
# Type: cell-based
smiles,measurement,value
"COc1ccc2cc3[n+](cc2c1OC)CCc1cc2c(cc1-3)OCO2 [BBR, berberine]",IC50,1010 ± 40 nM
